Test results as given in patent US11891387B2, “Monoacylglycerol lipase modulators” (Janssen Pharmaceutica NV, priority 2020, dated 2024).

Target: human MGL from HeLa cells (Homo sapiens (Human), UniProt Q99685)
Assay: MGL in vitro activity assay: cleavage of [glycerol-1,3-3H]-oleyl glycerol, activated carbon filtration
Assay type: biochemical
Conditions: 300 nM [Glycerol-1,3-3H]-oleyl glycerol, endogenously expressed MGL from HeLa cells, one hour incubation
Description: The assay used to measure the in vitro activity of MGL is adapted from the assay used for another serine hydrolase (FAAH) described in Wilson et al., 2003 (A high-throughput-compatible assay for determining the activity of fatty acid amide hydrolase. Wilson S J, Lovenberg T W, Barbier A J. Anal Biochem. 2003 Jul. 15; 318(2):270-5.). The assay consists of combining endogenously expressed MGL from HeLa cells with test compounds, adding [glycerol-1,3-^3H]-oleyl glycerol, incubating for one hour, and then measuring the amount of cleaved [1,3-^3H]-glycerol that passes through an activated carbon filter. The amount of cleaved, tritiated glycerol passing through the carbon filter is proportional to the activity of the MGL enzyme in a particular well/test condition.
Standard conditions for this assay combine 300 nM [Glycerol-1,3-^3H]-oleyl glycerol with human MGL from HeLa cells and test compounds for one hour, after which the reaction is filtered through activated carbon and tritium is measured in the flow through. The test compound concentration in screening mode is 10 μM, while the highest compound concentration in IC50 assays is determined empirically. MGL is the predominant hydrolase in HeLa cells/cell homogenates.

human MGL from HeLa cells, sequence (Q99685 whole entry): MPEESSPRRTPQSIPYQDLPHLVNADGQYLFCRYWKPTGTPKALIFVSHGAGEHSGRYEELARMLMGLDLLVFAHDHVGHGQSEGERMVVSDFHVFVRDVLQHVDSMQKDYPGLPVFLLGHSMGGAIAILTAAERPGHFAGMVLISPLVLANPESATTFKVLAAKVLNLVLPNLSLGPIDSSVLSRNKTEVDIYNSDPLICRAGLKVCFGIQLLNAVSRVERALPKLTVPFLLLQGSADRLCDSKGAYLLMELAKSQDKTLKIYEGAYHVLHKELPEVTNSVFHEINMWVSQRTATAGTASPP

IC50 [nM]	Compound
150	C[C@H]1c2nn(C)c(-c3cc(C(F)(F)F)nn3C)c2CCN1C(=O)c1ccccc1C(F)(F)F [Example 29, (S)-(2,7-Dimethyl-3-(1-methyl-3-(trifluoromethyl)-1H-pyrazol-5-yl)-2,4,5,7-tetrahydro-6H-pyrazolo[3,4-c]pyridin-6-yl)(2-(trifluoromethyl)phenyl)methanone]
3070	Cc1ccc(C(=O)N2CCc3c(nn(C)c3-c3cnn(C)c3C(F)(F)F)[C@@H]2C)c(F)c1 [Example 30, (S)-(2,7-Dimethyl-3-(1-methyl-5-(trifluoromethyl)-1H-pyrazol-4-yl)-2,4,5,7-tetrahydro-6H-pyrazolo[3,4-c]pyridin-6-yl)(2-fluoro-4-methylphenyl)methanone]
10000	C[C@H]1c2nn(C)c(-c3cnn(C)c3C(F)(F)F)c2CCN1C(=O)c1cccc2cnn(C)c12 [Example 31, (S)-(2,7-Dimethyl-3-(1-methyl-5-(trifluoromethyl)-1H-pyrazol-4-yl)-2,4,5,7-tetrahydro-6H-pyrazolo[3,4-c]pyridin-6-yl)(1-methyl-1H-indazol-7-yl)methanone]
4560	C[C@H]1c2nn(C)c(-c3cnn(C)c3C(F)(F)F)c2CCN1C(=O)c1ccnc2c1cnn2C [Example 32, (S)-(2,7-Dimethyl-3-(1-methyl-5-(trifluoromethyl)-1H-pyrazol-4-yl)-2,4,5,7-tetrahydro-6H-pyrazolo[3,4-c]pyridin-6-yl)(1-methyl-1H-pyrazolo[3,4-b]pyridin-4-yl)methanone]
6470	Cc1ccc2cc(C(=O)N3CCc4c(nn(C)c4-c4cnn(C)c4C(F)(F)F)[C@@H]3C)cc(C)c2n1 [Example 33, (S)-(2,7-Dimethyl-3-(1-methyl-5-(trifluoromethyl)-1H-pyrazol-4-yl)-2,4,5,7-tetrahydro-6H-pyrazolo[3,4-c]pyridin-6-yl)(2,8-dimethylquinolin-6-yl)methanone]
2190	Cc1cc(C(=O)N2CCc3c(nn(C)c3-c3cnn(C)c3C(F)(F)F)[C@@H]2C)c2cc(F)ccc2n1 [Example 34, (S)-(2,7-Dimethyl-3-(1-methyl-5-(trifluoromethyl)-1H-pyrazol-4-yl)-2,4,5,7-tetrahydro-6H-pyrazolo[3,4-c]pyridin-6-yl)(6-fluoro-2-methylquinolin-4-yl)methanone]
25	COc1cccc(C(=O)N2CCc3c(nn(C)c3-c3cc(C(F)(F)F)nn3C)[C@@H]2C)c1Cl [Example 35, (S)-(2-Chloro-3-methoxyphenyl)(2,7-dimethyl-3-(1-methyl-3-(trifluoromethyl)-1H-pyrazol-5-yl)-2,4,5,7-tetrahydro-6H-pyrazolo[3,4-c]pyridin-6-yl)methanone]
23	COc1cccc(C(=O)N2CCc3c(nn(C)c3-c3cc(C(F)(F)F)nn3C)[C@@H]2C)c1C [Example 36, (S)-(2,7-Dimethyl-3-(1-methyl-3-(trifluoromethyl)-1H-pyrazol-5-yl)-2,4,5,7-tetrahydro-6H-pyrazolo[3,4-c]pyridin-6-yl)(3-methoxy-2-methylphenyl)methanone]
380	C[C@H]1c2nn(C)c(-c3cc(C(F)(F)F)nn3C)c2CCN1C(=O)c1cc(F)ccc1-n1cccn1 [Example 37, (S)-(2,7-Dimethyl-3-(1-methyl-3-(trifluoromethyl)-1H-pyrazol-5-yl)-2,4,5,7-tetrahydro-6H-pyrazolo[3,4-c]pyridin-6-yl)(5-fluoro-2-(1H-pyrazol-1-yl)phenyl)methanone]
73	COc1cccc(C(=O)N2CCc3c(nn(C)c3-c3cc(C(F)(F)F)nn3C)[C@@H]2C)c1 [Example 38, (S)-(2,7-Dimethyl-3-(1-methyl-3-(trifluoromethyl)-1H-pyrazol-5-yl)-2,4,5,7-tetrahydro-6H-pyrazolo[3,4-c]pyridin-6-yl)(3-methoxyphenyl)methanone]
38	COc1cc(Cl)cc(C(=O)N2CCc3c(nn(C)c3-c3cc(C(F)(F)F)nn3C)[C@@H]2C)c1 [Example 39, (S)-(3-Chloro-5-methoxyphenyl)(2,7-dimethyl-3-(1-methyl-3-(trifluoromethyl)-1H-pyrazol-5-yl)-2,4,5,7-tetrahydro-6H-pyrazolo[3,4-c]pyridin-6-yl)methanone]
230	COc1ccc(C(=O)N2CCc3c(nn(C)c3-c3cc(C(F)(F)F)nn3C)[C@@H]2C)c(C)c1 [Example 40, (S)-(2,7-Dimethyl-3-(1-methyl-3-(trifluoromethyl)-1H-pyrazol-5-yl)-2,4,5,7-tetrahydro-6H-pyrazolo[3,4-c]pyridin-6-yl)(4-methoxy-2-methylphenyl)methanone]
62	COc1cc(C)ccc1C(=O)N1CCc2c(nn(C)c2-c2cc(C(F)(F)F)nn2C)[C@@H]1C [Example 41, (S)-(2,7-Dimethyl-3-(1-methyl-3-(trifluoromethyl)-1H-pyrazol-5-yl)-2,4,5,7-tetrahydro-6H-pyrazolo[3,4-c]pyridin-6-yl)(2-methoxy-4-methylphenyl)methanone]
100	COc1ccc(C(=O)N2CCc3c(nn(C)c3-c3cc(C(F)(F)F)nn3C)[C@@H]2C)c(Cl)c1 [Example 42, (S)-(2-Chloro-4-methoxyphenyl)(2,7-dimethyl-3-(1-methyl-3-(trifluoromethyl)-1H-pyrazol-5-yl)-2,4,5,7-tetrahydro-6H-pyrazolo[3,4-c]pyridin-6-yl)methanone]
33	Cc1ccc(C(=O)N2CCc3c(nn(C)c3-c3cc(C(F)(F)F)nn3C)[C@@H]2C)cc1C [Example 43, (S)-(2,7-Dimethyl-3-(1-methyl-3-(trifluoromethyl)-1H-pyrazol-5-yl)-2,4,5,7-tetrahydro-6H-pyrazolo[3,4-c]pyridin-6-yl)(3,4-dimethylphenyl)methanone]
19	C[C@H]1c2nn(C)c(-c3cc(C(F)(F)F)nn3C)c2CCN1C(=O)c1nccc2ccccc12 [Example 44, (S)-(2,7-Dimethyl-3-(1-methyl-3-(trifluoromethyl)-1H-pyrazol-5-yl)-2,4,5,7-tetrahydro-6H-pyrazolo[3,4-c]pyridin-6-yl)(isoquinolin-1-yl)methanone]
1.1	C[C@H]1c2nn(C)c(-c3cc(C(F)(F)F)nn3C)c2CCN1C(=O)c1cccc2c1ccn2C [Example 45, (S)-(2,7-Dimethyl-3-(1-methyl-3-(trifluoromethyl)-1H-pyrazol-5-yl)-2,4,5,7-tetrahydro-6H-pyrazolo[3,4-c]pyridin-6-yl)(1-methyl-1H-indol-4-yl)methanone]
5.7	C[C@H]1c2nn(C)c(-c3cc(C(F)(F)F)nn3C)c2CCN1C(=O)c1ccnc2c1ccn2C [Example 46, (S)-(2,7-Dimethyl-3-(1-methyl-3-(trifluoromethyl)-1H-pyrazol-5-yl)-2,4,5,7-tetrahydro-6H-pyrazolo[3,4-c]pyridin-6-yl)(1-methyl-1H-pyrrolo[2,3-b]pyridin-4-yl)methanone]
0.67	C[C@H]1c2nn(C)c(-c3cc(C(F)(F)F)nn3C)c2CCN1C(=O)c1c(F)cnc2c1ccn2C [Example 47, (S)-(2,7-Dimethyl-3-(1-methyl-3-(trifluoromethyl)-1H-pyrazol-5-yl)-2,4,5,7-tetrahydro-6H-pyrazolo[3,4-c]pyridin-6-yl)(5-fluoro-1-methyl-1H-pyrrolo[2,3-b]pyridin-4-yl)methanone]
19	COc1cccc(C(=O)N2CCc3c(nn(C)c3-c3cc(C(F)(F)F)n(C)n3)[C@@H]2C)c1Cl [Example 48, (S)-(2-Chloro-3-methoxyphenyl)(2,7-dimethyl-3-(1-methyl-5-(trifluoromethyl)-1H-pyrazol-3-yl)-2,4,5,7-tetrahydro-6H-pyrazolo[3,4-c]pyridin-6-yl)methanone]
3.2	C[C@H]1c2nn(C)c(-c3cc(C(F)(F)F)n(C)n3)c2CCN1C(=O)c1ccnc2c1ccn2C [Example 49, (S)-(2,7-Dimethyl-3-(1-methyl-5-(trifluoromethyl)-1H-pyrazol-3-yl)-2,4,5,7-tetrahydro-6H-pyrazolo[3,4-c]pyridin-6-yl)(1-methyl-1H-pyrrolo[2,3-b]pyridin-4-yl)methanone]
23	Cc1cc(C(=O)N2CCc3c(nn(C)c3-c3cc(C(F)(F)F)n(C)n3)[C@@H]2C)cc(-n2nccn2)c1 [Example 50, (S)-(2,7-Dimethyl-3-(1-methyl-5-(trifluoromethyl)-1H-pyrazol-3-yl)-2,4,5,7-tetrahydro-6H-pyrazolo[3,4-c]pyridin-6-yl)(3-methyl-5-(2H-1,2,3-triazol-2-yl)phenyl)methanone]
890	COc1cccc(C(=O)N2CCc3c(nn(C)c3-c3cnn(C)c3C(F)(F)F)[C@@H]2C)c1Cl [Example 51, (S)-(2-Chloro-3-methoxyphenyl)(2,7-dimethyl-3-(1-methyl-5-(trifluoromethyl)-1H-pyrazol-4-yl)-2,4,5,7-tetrahydro-6H-pyrazolo[3,4-c]pyridin-6-yl)methanone]
420	C[C@H]1c2nn(C)c(-c3cnn(C)c3C(F)(F)F)c2CCN1C(=O)c1ccnc2c1ccn2C [Example 52, (S)-(2,7-Dimethyl-3-(1-methyl-5-(trifluoromethyl)-1H-pyrazol-4-yl)-2,4,5,7-tetrahydro-6H-pyrazolo[3,4-c]pyridin-6-yl)(1-methyl-1H-pyrrolo[2,3-b]pyridin-4-yl)methanone]
810	Cc1cc(C(=O)N2CCc3c(nn(C)c3-c3cnn(C)c3C(F)(F)F)[C@@H]2C)cc(-n2nccn2)c1 [Example 53, (S)-(2,7-Dimethyl-3-(1-methyl-5-(trifluoromethyl)-1H-pyrazol-4-yl)-2,4,5,7-tetrahydro-6H-pyrazolo[3,4-c]pyridin-6-yl)(3-methyl-5-(2H-1,2,3-triazol-2-yl)phenyl)methanone]
